Publication PMC9610897, “Cationic Perylene Antivirals with Aqueous Solubility for Studies In Vivo” (Pharmaceuticals, 2022)
Like-named read-outs stand apart in the source and are kept apart here.

How the values were obtained:
[1] = Cell viability assay in Vero cells (resazurin); type: cell-based; conditions: green monkey, 5 d, read-out: Cytotoxicity, CC50 ± SD, Vero
Method: (§1) The green monkey kidney (Vero) cell line originated from WHO Biologicals, Switzerland (10–87), and the Madin-Darby canine kidney (MDCK) cell line was obtained from the American Type Culture Collection (ATCC CCL-34).
Two-fold dilutions of the compounds (starting from 100 μM) were prepared in DMEM (Chumakov FSC R&D IBP RAS, Russia) and added to confluent cell monolayers. After 5 days of incubation (37 °C, 5% CO2), the cultural supernatant was substituted with a resazurin solution (25 μg/mL), followed by 4 h incubation (37 °C, 5% CO2). Then, 20 µL of 10% SDS were added to stop the reaction. Fluorescence intensity was measured with Promega GloMax-Multi Detection System (Ex525/Em580–640). Cells treated with dilutions of the compounds and DMSO, but not resazurin, were used to subtract the background fluorescence. All experimental procedures were performed in two replicates. Fluorescence curves were analyzed with Microsoft Excel 2013. 50% Cytotoxic concentrations (CC50) were calculated.

[2] = Solubility in water (photometry); type: physicochemical
Method: The samples were dissolved in DMSO, diluted in series, and photometrically analyzed. The average molar absorption coefficient was calculated from the obtained optical densities of calibration solutions at the absorption maxima. Solubility values were determined as previously described by adding weighed amounts of compounds to distilled water followed by sonication (30 min), centrifugation (12,000 rpm, 10 min), and photometry.

[3] = Cell viability assay in MDCK cells (MTT); type: cell-based, canine; conditions: dog, read-out: Cytotoxicity, CC50 ± SD, MDCK
Method: as §1
Compound solutions were prepared in DMSO (20 mg/mL), and then 2-fold dilutions in cultural medium were prepared starting from 1000 μg/mL. One-day MDCK cell monolayers (over 95% confluency) in 96-well plates ([…]) were washed twice with serum-free alpha-MEM (Thermo-Fisher Scientific, USA) and treated with 100 μL of compound dilutions in 2 replicates. The plates were then incubated for 24 h at 37 °C in a CO2 incubator. Cell viability was assessed using the tetrazolium test (MTT, ApplyChem). Optical density was measured on a Wallac 1420 Victor2 microplate reader (Perkin Elmer, Ramsey, MN, USA) at 535 nm, then CC50 values were calculated.

[4] = in vitro; type: in vitro ADME; conditions: bovine, 80% FBS in 0.05 M PBS pH 7.4, 37 °C, read-out: In vitro FBS half-life (t1/2)
Method: In vitro stability of 10 was studied in Gibco FBS (Thermo-Fisher Scientific, USA) by following the reported procedure with minor modifications. A 10 mM solution of the compound in DMSO (20 μL) was added to 80% FBS in 0.05 M PBS (pH 7.4) at 37 °C to yield the final concentration of 200 μM. The assays were carried out in triplicate in a water bath at 37 °C. Samples (100 μL) were taken at 0, 15, 30, 45, 60, 90, 120, 180, 240, and 300 min and added to 400 μL acetonitrile in order to deproteinize the plasma. The samples were then shaken for 1 min and centrifuged at 37 °C at 15,000 rpm for 5 min. The supernatants were analyzed by HPLC (detection at 530 nm). AUC values were determined and averaged from three independent experiments. In vitro serum half-life (t1/2) was calculated using the equation t1/2 = 0.693/b, where b is the slope found by linear fitting of the negative natural logarithm of the fraction remaining (AUC0-300/AUC0) vs. incubation time.

[5] = system: influenza A/California/7/09/MA virus; type: in vivo, BALB/c mice; conditions: for Average Life Expectancy (M ± SEM): BALB/c mice
[6] = system: CHIKV; assay: CHIKV cytopathic effect (CPE) inhibition test; type: cell-based, Chikungunya virus (CHIKV, strain Nic); conditions: Chikungunya virus, 120 h; CPE inhibition in Vero cells, 5 days, M ± SD; read-out: Antiviral Activity, EC50 ± SD, CHIKV
[7] = system: IAV; assay: IAV virus yield reduction assay; type: cell-based, influenza A virus (H1N1, strain A/PR/8/34); conditions: Influenza A virus; virus yield reduction in MDCK cells, MOI 1, 24 h, M ± SD; read-out: Antiviral Activity, EC50 ± SD, IAV
Excerpt: as §1
(§2) Viruses and strains used in the present work were severe acute respiratory syndrome-related coronavirus 2 (SARS-CoV-2, strain PIK35, GISAID EPI_ISL_428852), Chikungunya virus (CHIKV, strain Nic, GenBank IDs MN271691-2) and influenza A virus (H1N1, strain A/PR/8/34, ATCC VR-95).
Compound solutions were prepared in DMSO (20 mg/mL). The compounds were weighed in 2 mg amounts and dissolved in 100 μL of DMSO. Then, a series of 3-fold dilutions was prepared, starting from 300 µg/mL, in a cultural medium. The MDCK cell monolayer was treated with compound dilutions and incubated for 1 h in a CO2 incubator at 37 °C. Untreated cells were used as negative control. Afterward, the virus was added (MOI 1), and cells were incubated for 24 h at 37 °C in a CO2 incubator. After incubation, the culture medium was collected, and viral yields were determined by titration. In brief, a series of 10-fold dilutions (10^−7–10^−1) of viral supernatants were prepared in a cultural medium and applied to daily MDCK cell monolayers. Infected cells were incubated for 72 h at 37 °C in a CO2 incubator. The presence of the virus in the culture supernatants was determined using the hemagglutination assay with a 1% suspension of chicken erythrocytes. Viral titer was calculated according to the Reed-and-Muench method and was expressed as 50% tissue infectious doses (TID50) per 100 μL of volume. Inhibition (%) was calculated by comparison with non-treated cells, and EC50 was calculated from inhibitory curves.

[8] = system: SARS-CoV-2; assay: SARS-CoV-2 cytopathic effect (CPE) inhibition test; type: cell-based, strain PIK35; conditions: Severe acute respiratory syndrome coronavirus 2, 120 h; CPE inhibition in Vero cells, 5 days, M ± SD; read-out: Antiviral Activity, EC50 ± SD, SARS-CoV-2
Excerpt: as §1, §2
The procedure was described previously. In brief, two-fold dilutions of the compounds were prepared in Dulbecco MEM (Chumakov FSC R&D IBP RAS, Russia) and mixed 1:1 with a virus suspension containing 50–200 TCID50 and incubated for 1 h at 37 °C in a CO2 incubator. The final concentration series started from 100 μM. Then, compound-virus mixtures were added to confluent Vero cell monolayers in 2 replicates. After incubation at 37 °C in a CO2-incubator for 5 days, CPE signs (cell death) were assessed via microscope, and 50% effective concentration (EC50) (compound concentration required to decrease CPE by 50%) was calculated using the Karber method.

[9] = Stability in stomach acid-mimicking 0.16 M aqueous HCl (TLC); type: physicochemical
Method: Since in vivo evaluation of the leader compound in mouse model involves intragastric administration, stability in stomach acid-mimicking 0.16 M aqueous HCl was assessed. The compound was stable, with slight signs of decomposition as determined by thin-layer chromatography (TLC) for at least 4 h, which exceeds the average residence time of drugs in the stomach. Then, stability in fetal bovine serum (FBS) was evaluated.

## C[n+]1c(C=Cc2ccc3c4cccc5cccc(c6cccc2c63)c54)sc2ccccc21.[Cl-] [Compound 10, 3-Methyl-2-(2-(perylen-3-yl)vinyl)benzo[d]thiazol-3-ium chloride]
[1]
  CC50 at 5 days: > 100 µM
[2]
  Solubility in water (in words): substantial solubility
[2]; thermodynamic from solid, distilled water, sonication, centrifugation, photometry
  solubility at 30 min: 11 mM
[3]
  CC50 at 24 h: 69 ± 27 µM
[4]
  half-life at 200 μM: 2.78 h
[5]; 0.5 mg/kg intragastric
  Average Life Expectancy (M ± SEM): 8.6 ± 1.0 days
  Protective Index (PI): 11%
[5]; 4.5 mg/kg intragastric
  Average Life Expectancy (M ± SEM): 8.6 ± 1.2 days
  Protective Index (PI): 22%
[5]; mouse, in vivo
  Weight loss (maximum): up to 21.3%
[6]
  EC50: 0.99 ± 0.15 µM
[7]
  EC50: 22.7 ± 10 µM
[8]
  EC50: 1.45 ± 0.95 µM
[9]
  Stability in 0.16 M aqueous HCl, time stable with slight signs of decomposition: at least 4 h
